Activity calls are given as the source filed them. The rule behind the calls is not given here.
Key:
[1] = tested on: Plasmodium berghei; test: Antimalarial activity as parasitaemia against Plasmodium berghei ANKA infected Swiss mice (Mus musculus) at 30 mg/kg intraperitoneal single dose 64 hrs post infection (Rvb=2.5%+/-0.5%); type: functional
[2] = tested on: Plasmodium berghei; test: Antimalarial activity as parasitaemia nadir after 24 hrs against Plasmodium berghei ANKA infected Swiss mice (Mus musculus) at 30 mg/kg intraperitoneal single dose 64 hrs post infection; type: functional
[3] = tested on: Mus musculus; test: Toxicity in Plasmodium berghei ANKA infected Swiss mice (Mus musculus) assessed as median time for adverse effect at 30 mg/kg, intraperitoneally administered as single dose 64 hrs after infection measured after 24 hrs; type: organism-based; parameters: dose 30 mg/kg, route intraperitoneal; settings: in vivo, ip
[4] = tested on: Plasmodium berghei; test: Antimalarial activity as reduced parasitaemia after 24hrs against Plasmodium berghei ANKA infected Swiss mice (Mus musculus) at 30 mg/kg intraperitoneal single dose 64 hrs post infection; type: functional, organism-based; parameters: dose 30 mg/kg
[5] = tested on: Plasmodium berghei; test: Antimalarial activity as reduced parasitaemia against Plasmodium berghei ANKA infected Swiss mice (Mus musculus) up to 180 mg/kg intraperitoneal single dose 64 hrs post infection; type: functional, organism-based; parameters: dose 180 mg/kg
[6] = tested on: Mus musculus; test: Toxicity in Plasmodium berghei ANKA infected Swiss mice (Mus musculus) assessed as median time for adverse effect at 90 mg/kg, intraperitoneally administered at 1,12 and 24 hrs after 64 hrs postinfection; type: organism-based; parameters: dose 90 mg/kg, route intraperitoneal; settings: in vivo, ip
[7] = tested on: Plasmodium berghei; test: Antimalarial activity as parasitaemia against Plasmodium berghei ANKA infected Swiss mice (Mus musculus) at 90 mg/kg intraperitoneal dose 65, 76 and 88 hrs post infection (Rvb=2.5%+/-0.5%); type: functional
[8] = Half life in Plasmodium falciparum infected human at 200 mg/day, perorally after 7 days; type: ADME, organism-based; settings: in vivo, po
[9] = Half life in Plasmodium falciparum infected human dosed every 24 hrs after 48 hrs of infection; type: ADME, organism-based; settings: in vivo
[10] = tested on: Plasmodium berghei; test: Antimalarial activity as reduced parasitaemia against Plasmodium berghei ANKA infected Swiss mice (Mus musculus) at 90 mg/kg intraperitoneal dose at 65, 76 and 88 hrs post infection; type: functional, organism-based; parameters: dose 90 mg/kg
[11] = tested on: Mus musculus; test: Toxicity in Plasmodium berghei ANKA infected Swiss mice (Mus musculus) assessed as discomfort at 180 mg/kg, intraperitoneally administered as single dose 64 hrs after infection; type: organism-based; parameters: dose 180 mg/kg, route intraperitoneal; settings: in vivo, ip
[12] = tested on: Plasmodium berghei; test: Antimalarial activity as parasitaemia nadir against Plasmodium berghei ANKA infected Swiss mice (Mus musculus) at 90 mg/kg intraperitoneal dose 65, 76 and 88 hrs post infection; type: functional
[13] = Half life in healthy mouse at 50 mg/kg; type: ADME, organism-based; parameters: dose 50 mg/kg; settings: in vivo
[14] = tested on: Mus musculus; test: Toxicity in Plasmodium berghei ANKA infected Swiss mice (Mus musculus) assessed as adverse effect at 90 mg/kg, intraperitoneally administered at 1,12 and 24 hrs after 64 hrs postinfection; type: organism-based; parameters: dose 90 mg/kg, route intraperitoneal; settings: in vivo, ip

## C[C@H]1[C@@H](O)O[C@@H]2O[C@@]3(C)CC[C@H]4[C@H](C)CC[C@@H]1[C@@]24OO3 [ARTENIMOL]
[1]
  Activity: 2.6%
[2]
  Activity: 0.53%
[3]
  Activity: 1 days
[4]
  Activity: Active

## C[C@H]1c2cccc(O)c2C(=O)C2=C(O)[C@]3(O)C(=O)C(C(N)=O)=C(O)[C@@H](N(C)C)[C@@H]3[C@@H](O)[C@@H]21.O [DOXYCYCLINE]
[5]
  Activity: inactive
[6]
  Time: 6 days
[7]
  Activity: 3%
[8]
  half-life: 14 h
[9]
  half-life: 10.5 h
[10]
  Activity: Active
[11]
  Activity: Toxic
[12]
  Activity: 0.06%
[13]
  half-life: 2.8 h
[14]
  Activity: Non-toxic
